From patent US8389555B2, “Medicaments” (Motac Neuroscience Limited, priority 2007, dated 2013) come the findings set out here.

SMILES strings stand for the structures. Counter-ions that a name gives are not always drawn.

Consider `CCN(CCN(CC)C1CCc2ncsc2C1)C1CCc2ncsc2C1` (stereo not drawn) (as salt: salt) [Compound 33, N,N′-Diethyl-N,N′-bis-(4,5,6,7-tetrahydro-benzothiazol-6-yl)-ethane-1,2-diamine], for which the melting point – broadly, the temperature of the solid-liquid transition – is 83 °C.
In turn, `CCN(CCN1CCc2ccccc2C1)C1CCc2ncsc2C1` (stereo not drawn) (as salt: salt) [Compound 31, [2-(3,4-Dihydro-1H-isoquinolin-2-yl)-ethyl]-ethyl-(4,5,6,7-tetrahydro-benzothiazol-6-yl)-amine] gave a melting point of 193 °C.
As for `CCCN(CCCCNC(=O)N1CCC(c2ccccc2)CC1)C1CCc2ncsc2C1` (stereo not drawn) (as salt: salt) [Compound 64, 4-phenyl-N-(4-(propyl-(4,5,6,7-tetrahydrobenzo [d]thiazol-6-yl)amino)butyl)piperidine-1-carboxamide], the melting point was 56 °C.
`CCCN(CCCCNC(=O)N1CCCCC1)C1CCc2ncsc2C1` (stereo not drawn) (as salt: salt) [Compound 21, Piperidine-1-carboxylic acid {4-[propyl-(4,5,6,7-tetrahydro-benzothiazol-6-yl)-amino]-butyl}-amide]: the melting point was determined as 71 °C.
The same measure for `CCCN(CCCCNC(=O)N1CCN(c2ccccc2)CC1)C1CCc2ncsc2C1` (stereo not drawn) (as salt: salt) [Compound 61, 4-Phenylpiperazine-1-carboxylic acid {4-[propyl-(4,5,6,7-tetrahydrobenzothiazol-6-yl)amino]butyl}amide]: 120 °C.
Consider `CCCN(CCCCNC(=O)C1CCc2ccccc2C1)C1CCc2ncsc2C1` (stereo not drawn) (as salt: salt) [Compound 23, 1,2,3,4-Tetrahydro-naphthalene-2-carboxylic acid {4-[propyl-(4,5,6,7-tetrahydro-benzothiazol-6-yl)-amino]-butyl}-amide], for which the melting point turned out to be 138 °C.
The same measure for `CCN(CCCN1CCN(c2ccccc2OC)CC1)C1CCc2ncsc2C1` (stereo not drawn) (as salt: salt) [Compound 29, Ethyl-{3-[4-(2-methoxy-phenyl)-piperazin-1-yl]-propyl}-(4,5,6,7-tetrahydro-benzothiazol-6-yl)-amine]: 64 °C; for `CN(CCCCNC(=O)c1ccc2ccccc2c1)C1CCc2ncsc2C1` (stereo not drawn) (as salt: salt) [Compound 3, Naphthalene-2-carboxylic acid {4-[methyl-(4,5,6,7-tetrahydro-benzothiazol-6-yl)-amino]-butyl}-amide]: 122 °C.
The same measure for `CCCN(CCCCNC(=O)NC1Cc2ccccc2C1)C1CCc2ncsc2C1` (stereo not drawn) (as salt: salt) [Compound 60, 1-Indan-2-yl-3-{4-[propyl-(4,5,6,7-tetrahydrobenzothiazol-6-yl)amino]butyl}urea]: 93 °C; for `CCCN(CCOc1ccccc1)C1CCc2ncsc2C1` (stereo not drawn) (as salt: salt) [Compound 69, N-(2-Phenoxyethyl)-N-propyl-4,5,6,7-tetrahydrobenzothiazol-6-amine]: 136 °C.
In the case of `C#CCN(CCCCNC(=O)c1ccc2ccccc2c1)C1CCc2ncsc2C1` (stereo not drawn) (as salt: salt) [Compound 7, Naphthalene-2-carboxylic acid {4-[prop-2-ynyl-(4,5,6,7-tetrahydro-benzothiazol-6-yl)-amino]-butyl}-amide] it was 126 °C.
`CCN(CCCCN1CCN(c2ccccc2OC)CC1)C1CCc2ncsc2C1` (stereo not drawn) (as salt: salt) [Compound 30, Ethyl-{4-[4-(2-methoxy-phenyl)-piperazin-1-yl]-butyl}-(4,5,6,7-tetrahydro-benzothiazol-6-yl)-amine]: the melting point is 164 °C.
The same measure for `CCCN(CCCN1CCN(c2cccc(Cl)c2Cl)CC1)C1CCc2ncsc2C1` (stereo not drawn) (as salt: salt) [Compound 36, {3-[4-(2,3-Dichloro-phenyl)-piperazin-1-yl]-propyl}-propyl-(4,5,6,7-tetrahydro-benzothiazol-6-yl)-amine]: 110 °C; for `CCN(CCCCNC(=O)c1ccc2ncsc2c1)C1CCc2ncsc2C1` (stereo not drawn) (as salt: salt) [Compound 14, Benzothiazole-6-carboxylic acid {4-[ethyl-(4,5,6,7-tetrahydro-benzothiazol-6-yl)-amino]-butyl}-amide]: 106.5 °C.
The same measure for `CCCN(CCCCNC(=O)C12CC3CC(CC(C3)C1)C2)C1CCc2ncsc2C1` (stereo not drawn) (as salt: salt) [Compound 65]: 114 °C.
The same measure for `CCCN(CCCCN1CCN(c2cccc(Cl)c2Cl)CC1)C1CCc2ncsc2C1` (stereo not drawn) (as salt: salt) [Compound 37, {4-[4-(2,3-Dichloro-phenyl)-piperazin-1-yl]-butyl}-propyl-(4,5,6,7-tetrahydro-benzothiazol-6-yl)-amine]: 150 °C; for `CCCN(CCCCNC(=O)NC1CCCCC1)C1CCc2ncsc2C1` (stereo not drawn) (as salt: salt) [Compound 22, 1-Cyclohexyl-3-{4-[propyl-(4,5,6,7-tetrahydro-benzothiazol-6-yl)-amino]-butyl}-urea]: 149 °C.
On to `CCN(CCNC(=O)c1ccc2ccccc2c1)C1CCc2ncsc2C1` (stereo not drawn) (as salt: salt) [Compound 32, Naphthalene-2-carboxylic acid {2-[ethyl-(4,5,6,7-tetrahydro-benzothiazol-6-yl)-amino]-ethyl}-amide], for which the melting point worked out at 110 °C.
In turn, `CN(CCCCNC(=O)c1cc2ccccc2s1)C1CCc2ncsc2C1` (stereo not drawn) (as salt: salt) [Compound 11, Benzo[b]thiophene-2-carboxylic acid {4-[methyl-(4,5,6,7-tetrahydro-benzothiazol-6-yl)-amino]-butyl}-amide] yielded a melting point of 105 °C.
In the case of `CCCN(CCCCC(=O)N1CCN(c2ccccc2)CC1)C1CCc2ncsc2C1` (stereo not drawn) (as salt: salt) [Compound 66, 1-(4-Phenylpiperazin-1-yl)-5-(propyl-(4,5,6,7-tetrahydrobenzothiazol-6-yl)amino)pentan-1-one] it was 75 °C; in that of `CCCN(CCCCNC(=O)N1CCc2ccccc2C1)C1CCc2ncsc2C1` (stereo not drawn) (as salt: salt) [Compound 24, 3,4-Dihydro-1H-isoquinoline-2-carboxylic acid {4-[propyl-(4,5,6,7-tetrahydro-benzothiazol-6-yl)-amino]-butyl}-amide], 125 °C; in that of `C=CCN(CCCCNC(=O)c1ccc2ccccc2c1)C1CCc2ncsc2C1` (stereo not drawn) (as salt: salt) [Compound 6, Naphthalene-2-carboxylic acid {4-[allyl-(4,5,6,7-tetrahydro-benzothiazol-6-yl)-amino]-butyl}-amide], 128 °C.
In the case of `CCN(CCCCNC(=O)c1cc2ccccc2s1)C1CCc2ncsc2C1` (stereo not drawn) (as salt: salt) [Compound 12, Benzo[b]thiophene-2-carboxylic acid {4-[ethyl-(4,5,6,7-tetrahydro-benzothiazol-6-yl)-amino]-butyl}-amide] it was 103 °C.
In turn, `CCCN(CCN1CCN(C(=O)c2ccccc2)CC1)C1CCc2ncsc2C1` (stereo not drawn) (as salt: salt) [Compound 38, [2-(4-Benzoyl-piperazin-1-yl)-ethyl]-propyl-(4,5,6,7-tetrahydro-benzothiazol-6-yl)-amine] came in with a melting point of 186 °C.
The same measure for `CCN(CCN1CCN(c2ccccc2OC)CC1)C1CCc2ncsc2C1` (stereo not drawn) (as salt: salt) [Compound 28]: 108 °C; for `CCCN(CCCCC(=O)NC12CC3CC(CC(C3)C1)C2)C1CCc2ncsc2C1` (stereo not drawn) (as salt: salt) [Compound 68, N-Adamantanyl-5-(propyl-(4,5,6,7-tetrahydrobenzothiazol-6-yl)amino)pentanamide]: 145 °C.
The same measure for `CCCN(CCCCC(=O)NC1Cc2ccccc2C1)C1CCc2ncsc2C1` (stereo not drawn) (as salt: salt) [Compound 67, N-(2,3-dihydro-1H-inden-2-yl)-5-(propyl-(4,5,6,7-tetrahydrobenzothiazol-6-yl)amino)pentanamide]: 60 °C; for `CCN(CCCCNC(=O)c1ccc2ccccc2c1)C1CCc2ncsc2C1` (stereo not drawn) (as salt: salt) [Compound 4, Naphthalene-2-carboxylic acid {4-[ethyl-(4,5,6,7-tetrahydro-benzothiazol-6-yl)-amino]-butyl}-amide]: 120 °C; for `CC#CCN(CCCCNC(=O)c1ccc2ccccc2c1)C1CCc2ncsc2C1` (stereo not drawn) (as salt: salt) [Compound 8, Naphthalene-2-carboxylic acid {4-[but-2-ynyl-(4,5,6,7-tetrahydro-benzothiazol-6-yl)-amino]-butyl}-amide]: 147 °C.
The same measure for `CCCN(CCCCNC(=O)N1Cc2ccccc2C1)C1CCc2ncsc2C1` (stereo not drawn) (as salt: salt) [Compound 27, 1,3-Dihydro-isoindole-2-carboxylic acid {4-[propyl-(4,5,6,7-tetrahydro-benzothiazol-6-yl)-amino]-butyl}-amide]: 118 °C.
In turn, `CCCN(CCCCC(=O)Nc1ccc2ccccc2c1)C1CCc2ncsc2C1` (stereo not drawn) (as salt: salt) [Compound 9, 5-[Propyl-(4,5,6,7-tetrahydro-benzothiazol-6-yl)-amino]-pentanoic acid naphthalen-2-ylamide] registered a melting point of 85 °C.
In the case of `CCCN(CCCCNC(=O)c1ccccc1)C1CCc2ncsc2C1` (stereo not drawn) (as salt: salt) [Compound 1, N-{4-[Propyl-(4,5,6,7-tetrahydro-benzothiazol-6-yl)-amino]-butyl}-benzamide] it was 152 °C; in that of `CCCN(CCCCNC(=O)N1CCc2cc(OC)c(OC)cc2C1)C1CCc2ncsc2C1` (stereo not drawn) (as salt: salt) [Compound 25, 6,7-Dimethoxy-3,4-dihydro-1H-isoquinoline-2-carboxylic acid {4-[propyl-(4,5,6,7-tetrahydro-benzothiazol-6-yl)-amino]-butyl}-amide], 106 °C.
